Data taken from patent publication US20170328922A1, “METHODS AND PRODUCTS FOR LABELLING LIPIDS” (UNIVERSITY OF SOUTH AUSTRALIA, priority 2014, published 2017).

Columns and labels:
[1] = Rhenium molecular probe-lipid overlay (dot blot); assay type: binding; set-up: key to interaction with Sphingomyline (dot blot): ✓ indicates a positive interaction; x indicates no interaction; conditions: for interaction with Sphingomyline (dot blot): 10 μM probe, 50 μM lipid on PVDF membrane; for affinity towards sphingomyelin, in words: FIG. 7 / FIG. 8
Description: (§1) The experimental protocol probe-lipid overlay was as follows: 50 μM of each lipids was loaded on to PVDF membranes (Perkin Elmer, USA), which were then incubated with molecular probes. PhenCyano and PhenPyridyl were assessed against eleven lipids including; sphingomyelin (Cat # S0756, Sigma Aldrich, USA), sphingosine (Cat # S7049; Sigma Aldrich, USA), L-phosphatidylethanolamine (Cat # P7943, Sigma Aldrich, USA), monosialodanglioside (GM1; Cat # G7641, Sigma Aldrich, USA), oleoly-L-?-lysophosphatidic acid (Cat # L7260, Sigma Aldrich, USA), palmitic acid (Cat # P5917, Sigma Aldrich, USA), sphingomyelin (Cat # S0756, Sigma Aldrich, USA), sphingosine (Cat # S7049; Sigma Aldrich, USA), L-?-phosphatidylethanolamine (Cat # P7943, Sigma Aldrich, USA), monosialodanglioside (GM1; Cat # G7641, Sigma Aldrich, USA), progesterone (Cat #102722, MP Biomedical, USA), ceramide (Cat # C2137; Sigma Aldrich, USA), triacylglycerol mix C2-C10 (Cat #17810, Sigma Aldrich, USA) and cholesteryl acetate (Cat #151114; Sigma Aldrich, USA).
(§2) All other molecular probes were assessed against a panel of six lipids including; sphingomyelin (Cat # S0756, Sigma Aldrich, USA), sphingosine (Cat # S7049; Sigma Aldrich, USA), L-?-phosphatidylethanolamine (Cat # P7943, Sigma Aldrich, USA), monosialodanglioside (GM1; Cat # G7641, Sigma Aldrich, USA), sphingomyelin (Cat # S0756, Sigma Aldrich, USA), sphingosine (Cat # S7049; Sigma Aldrich, USA), L-?-phosphatidylethanolamine (Cat # P7943, Sigma Aldrich, USA), monosialodanglioside (GM1; Cat # G7641, Sigma Aldrich, USA) and triacylglycerol mix C2-C10 (Cat #17810, Sigma Aldrich, USA).
(§3) Lipids were dissolved in ethanol, methanol or isopropanol for loading depending on solubility. Following lipid loading, membranes were left to dry for 20-30 minutes, then they were washed for 10 minutes in cold 10% ethanol, before they were incubated with 10 μM solution of each Rhenium molecular probe in cold 10% ethanol for one hour. Membranes were than washed four times for 10 minutes in cold 10% ethanol prior to imaging. Imaging was performed on an Image Quant Las 4000 (GE, Sweden) luminescent image analyser, with the Rhenium molecular probe being detected by excitation at 460 nm using an epi-blue light source, and detected using an 575 nm ethidium bromide filter.

[2] = Rhenium molecular probe-lipid overlay (dot blot); assay type: binding; set-up: key to interaction with Sphingosine (dot blot): ✓ indicates a positive interaction; x indicates no interaction; conditions: for interaction with Sphingosine (dot blot): 10 μM probe, 50 μM lipid on PVDF membrane; for affinity towards sphingosine, in words: FIG. 7 / FIG. 8
Description: as §1, §2, §3

[3] = Rhenium molecular probe-lipid overlay (dot blot); assay type: binding; set-up: key to interaction with GM1 (dot blot): ✓ indicates a positive interaction; x indicates no interaction; conditions: for interaction with GM1 (dot blot): 10 μM probe, 50 μM lipid on PVDF membrane; for affinity towards monosialotetrahexosylganglioside (GM1), in words: FIG. 7 / FIG. 8
Description: as §1, §2, §3

[4] = Rhenium molecular probe-lipid overlay (dot blot); assay type: binding; set-up: key to interaction with PE (dot blot): ✓ indicates a positive interaction; x indicates no interaction; conditions: for interaction with PE (dot blot): 10 μM probe, 50 μM lipid on PVDF membrane; for affinity towards phosphatidylethanolamine (PE), in words: FIG. 7 / FIG. 8
Description: as §1, §2, §3

[5] = Rhenium molecular probe-lipid overlay (dot blot); assay type: binding; set-up: key to interaction with Cholestrol (dot blot): ✓ indicates a positive interaction; x indicates no interaction; conditions: for interaction with Cholestrol (dot blot): 10 μM probe, 50 μM lipid on PVDF membrane; for affinity towards cholesterol, in words: FIG. 7 / FIG. 8
Description: as §1, §2, §3

[6] = Rhenium molecular probe-lipid overlay (dot blot); assay type: binding; set-up: key to interaction with Triglycerides (dot blot): ✓ indicates a positive interaction; x indicates no interaction; conditions: for interaction with Triglycerides (dot blot): 10 μM probe, 50 μM lipid on PVDF membrane; for interaction with triglycerides, in words: FIG. 7 / FIG. 8
Description: as §1, §2, §3

[7] = tested on: Drosophila fat body tissue; experiment: Live staining and confocal imaging of explanted fat body tissue; assay type: cell-based; conditions: fixed fat body, nutrient deprivation/starvation conditions
Description: All stocks were maintained in standard medium at 25° C. The yeast GAL4-UAS system was used for targeted gene expression (Brand and Perrimon, 1993). Fat-body specific expression of transgenes from the UAS were driven by CG-GAL4 (Asha et al., 2003). Transgenic UAS-Atg9RNAi stocks (#34901) and UAS-TorTED stocks (#7013) were obtained from the Bloomington Drosophila Stock Centre (Indiana University, IN, USA). Atg8aGFP was driven by an endogenous promoter (Kelso et al., 2004).
Bromophenol-blue was added to the fly media and used to define different developmental time points. […] Newly formed white pupae (0 h PF), were isolated onto moist filter paper and incubated at 25° C. for either two hours (+2 h PF) or four hours (+4 h PF).
Third instar larvae at −8 h PF were removed from standard media (normally feeding at this developmental stage) and placed on filter paper either soaked in 5% (w/v) sucrose (for amino acid deprivation), or 5% (w/v) tryptone pancreatic digest of casein (BD Bioscience USA; for carbohydrate deprivation), or soaked in water (for complete starvation). Larvae were incubated for 4-5 hours prior tissue isolation and imaging.
Fat body tissue was dissected into PBS from Drosophila larvae or pupae. The fat body tissue was either incubated with 10 μM tricarbonyl phenanthrolin (4-cyanophenyltretrazolato) Rhenium (I) in PBS for 15 minutes at room temperature, or LysoTracker® green (according to manufacturer instructions; Invitrogen, USA) and then mounted in carbomer-940 (Snowdrift farm, Tucson, USA) based optical coupling gel to prevent dehydration prior to imaging (Rothstein et al., 2006). For Oil Red O staining, fat body tissue was fixed in 4% (v/v) paraformaldehyde for 20 minutes, and incubated in 1/100 Oil Red 0 for 30 minutes and then washed in PBS before mounting in 80% glycerol.
A Ziess LSM710 META NLO confocal microscope (Zeiss, Germany), supplemented with a two-photon Mai-Tai® (tunable Ti:Sapphire femtosecond pulse laser, 710-920 nm, Spectra-Physics, Australia) was used for imaging. The images were acquired using a Plan-APOCHROMAT 63×/NA1.4 oil immersion objective. The Rhenium probe was excited at 830 nm using the two-photon pulse laser and detect at 600-654 nm. LysoTracker® green was imaged by excitation at 488 nm and detected at 497-558 nm. Atg8a-GFP was imaged with the Rhenium probe by excitation at 830 nm and resolved using spectral un-mixing using the Zen software package (based on spectral figure-printing of the two components). The Rhenium probe images and co-location analysis involved at least five separate images from five independent biological replicates, and one representative image from each treatment was selected for presentation (containing a minimum of 2 cells). For image quantification, two regions of interest (ROI) were selected at random with an area of 2500 μm^2 and the number of fluorescent puncta within the area counted, to give a minimum of 10 counts per treatment group. Comparison of means was performed by ANOVA with a Tukey post hoc tested in GraphPad Prism V.6.01 (USA).

[8] = Rhenium molecular probe-lipid overlay (dot blot); assay type: binding; set-up: key to interaction with Lysophosphatidic acid (dot blot): ✓ indicates a positive interaction; x indicates no interaction
Description: as §1, §3

[9] = Rhenium molecular probe-lipid overlay (dot blot); assay type: binding; conditions: FIG. 7
Description: as §1, §3

[10] = Rhenium molecular probe-lipid overlay (dot blot); assay type: binding; conditions: FIG. 7
Description: as §1, §3

[11] = Rhenium molecular probe-lipid overlay (dot blot); assay type: binding; conditions: FIG. 7
Description: as §1
Lipids were dissolved in ethanol, methanol or isopropanol for loading depending on solubility. […] Imaging was performed on an Image Quant Las 4000 (GE, Sweden) luminescent image analyser, with the Rhenium molecular probe being detected by excitation at 460 nm using an epi-blue light source, and detected using an 575 nm ethidium bromide filter.

[12] = Rhenium molecular probe-lipid overlay (dot blot); assay type: binding; set-up: key to interaction with Cholestryl acetate (dot blot): ✓ indicates a positive interaction; x indicates no interaction
Description: as §1, §3

3T3 L1 cells = experiment: Live cell staining with rhenium molecular probes; assay type: cell-based; conditions: live samples, 10-20 μM probe
Description: (§4) Probes were dissolved in DMSO to obtain a stock solution with a concentration of 10 mM. Stock solutions were stored at room temperature in a dark place. Working solutions were prepared only at the time of use as the probe has reduced solubility in aqueous solutions. A Working solution was a dilution 1/1000 to 1/500 of the stock in DMSO to PBS or cell medium, and as such the percentage of DMSO used in actual cell experiments was less than 1%.
(§5) For tissues, the tissues were isolated in PBS (or other physiological media) and mounted on a coverslip. For cells, these were grown as per normal practice on coverslips.
(§6) The media was removed media and replaced with 10-20 μM solution of molecular probes in PBS (or appropriate physiological media/cell media) at a dilution of stock solution from 1/1000-1/500, for 15-30 minutes at physiologically appropriate temperature (37° C. for cell culture or 25° C. for insect larvae). […] If foetal calf serum is necessary for cell health, an increased incubation time may be necessary to obtain adequate staining.
The samples were washed for one minute in PBS. […]
Micrographs of 3T3 L1, 453 cells and CHOK1 cells and Drosophila fat body tissue stained with rhenium molecular probes, PhenCyan top, PhenPyridyl bottom are shown in FIG. 10. […] Left: confocal images; Right: fluorescence microscopy images.

[13] = tested on: Drosophila fat body cells; experiment: Live tissue staining with rhenium molecular probes (Examples 10, 13); assay type: cell-based; conditions: live samples, 10-20 μM probe
Description: as §4, §5, §6
The samples were washed for one minute in PBS. If co-staining was performed, the samples were washed in PBS for 30 seconds, before incubating with counterstain.
Tissues were mounted in optical coupling gel, such as carbomer-940 (Snowdrift farm, Tucson, USA) based gel to prevent dehydration prior to imaging and maintain tissue integrate (Rothstein, E. C., Nauman, M., Chesnick S., Balaban R. S., 2006, Multi-photon excitation microscopy in intact animals Journal of Microscopy 222, 58, 64). For cells, the coverslip was mounted in PBS for immediate imaging.
Samples were imaged immediately following staining.
Rhenium molecular probes were? excited at 800-830 nm using a two-photon pulse laser or 405 steady state laser and detection in the range of 490-670 nm, with an emission maxima at around 570.
Micrographs of 3T3 L1, 453 cells and CHOK1 cells and Drosophila fat body tissue stained with rhenium molecular probes, PhenCyan top, PhenPyridyl bottom are shown in FIG. 10. […] Left: confocal images; Right: fluorescence microscopy images. […]

[14] = 10 μM probe, 50 μM lipid on PVDF membrane

Compound	interaction with Sphingomyline (dot blot) [1]	affinity towards sphingomyelin, in words [1]	interaction with Sphingosine (dot blot) [2]	affinity towards sphingosine, in words [2]	interaction with GM1 (dot blot) [3]	affinity towards monosialotetrahexosylganglioside (GM1), in words [3]	interaction with PE (dot blot) [4]	affinity towards phosphatidylethanolamine (PE), in words [4]	interaction with Cholestrol (dot blot) [5]	affinity towards cholesterol, in words [5]	interaction with Triglycerides (dot blot) [6]	interaction with triglycerides, in words [6]	also measured
COC(=O)c1ccc(-c2nn[n]([Re](=[C]=O)(=[C]=O)=[C]=O)n2)cc1.c1cnc2c(c1)ccc1cccnc12 [PhenEster]	✓	varying affinity	✓	varying affinity	✓	varying affinity	✓	varying affinity	✓	varying affinity	✓	appeared to interact	–
Cc1ccc(C)c(N=Nc2cc(C)c(N=Nc3c(O)ccc4ccccc34)cc2C)c1 [oil red, reference compound]	–	–	–	–	–	–	–	–	–	–	–	–	colocalisation of staining with Atg8a-GFP [7]: did not appear to colocalise
O=[C]=[Re](=[C]=O)(=[C]=O)[n]1nnc(-c2cccnc2)n1.c1cnc2c(c1)ccc1cccnc12 [PhenPyridyl, Triscarbonyl phenanthroline (3-pyridyltetrazolato)Rhenium(I)]	✓	some affinity	–	some affinity	✓	some affinity	✓	some affinity	–	some affinity	–	no interaction detected	interaction with Lysophosphatidic acid (dot blot) [8, 14]: ✓; affinity towards lysophosphatidic acid, in words ([8]; FIG. 7): some affinity; affinity towards progesterone, in words [9]: some affinity; interaction with ceramide, in words [10]: no interaction detected; interaction with fatty acid (palmitic acid), in words [11]: no interaction detected; interaction with Cholestryl acetate (dot blot) [12, 14]: x; interaction with cholesterol ester (cholesteryl acetate), in words ([12]; FIG. 7): no interaction detected; staining pattern in 3T3 L1 cells (3T3 L1 cells): limited to no lipid droplet staining; staining pattern in Drosophila fat body cells [13]: limited to no lipid droplet staining
facial-Tricarbonyl (η^1(N2)-5- cyanophen-4′-yl tetrazolato) η^2-2,2′- bipyridine Rhenium(I) [BiphenCyano]	✓	varying affinity	✓	varying affinity	✓	varying affinity	✓	varying affinity	✓	varying affinity	x	–	–
facial-Tricarbonyl (η^1(N2)-5-(methyl bcnzoate-4′-yl tetrazolato) η^2-2,2′- bipyridine Rhenium(I) [BiphenEster]	✓	varying affinity	–	varying affinity	✓	varying affinity	✓	varying affinity	–	varying affinity	✓	appeared to interact	–
